Source: patent EP0366638A2, “Neuromodulatory peptide” (KabiGen AB, priority 1988, dated 1990)

Key:
cortical brain slices = test: release of acetylcholine from cortical brain slices; type: cell-based; conditions: following depolarization, Fig. 1
Text: The tripeptide resulting from the manufacture according to Example 1 above was used in a test system according to L. Nilsson, V.R. Sara and A. Nordberg, Neurosience Letters, 1988, Vol. 88, pp 221-226. This test procedure is based on stimulation of the release of acetylcholine from cortical brain slices.

cortical neurones = test: modulation of the electrophysiological activity of cortical neurones (microiontophoresis and pressure ejection procedure); conditions: Fig. 2
Text: The tripeptide from Example 1 above was used in modulation of the electrophysiological activity of cortical neurones, and the results of this experiment is illustrated in Fig. 2. […] In this experiment the procedure according to T.W. Stone (Ed.), "Microiontophonesis and pressure ejection", John Wiley & Sons, New York, 1985 was used.

spinal cord = test: electrophysiological reflex response in the spinal cord; type: in vivo
Text: The result of these experiments is shown in Fig. 3, from which it is clear that the tripeptide increases both the peak and the duration of the reflex response.

SMILES: NCC(=O)N1CCC[C@H]1C(=O)N[C@@H](CCC(=O)O)C(=O)O [tripeptide, glycylprolylglutamic acid]
- release of acetylcholine from neurones (cortical brain slices): inhance the release of acetylcholine
- neural response to neurotransmitters (cortical neurones; cortical neurones): modulates
- cortical neurone activity (cortical neurones; electrophysiological activity): both stimulates and inhibits
- duration of the reflex response (spinal cord; Fig. 3): increases
- peak of the reflex response (spinal cord; Fig. 3): increases
- electrophysiological reflex response in the spinal cord (spinal cord; in vivo): facilitate
